Assay results as given in PubChem BioAssay AID651733 (The Scripps Research Institute Molecular Screening Center, 2012).
pIC50: −log10 of the molar value. The source made the active and inactive calls. The rule behind the calls is not given here.

Target: Perilipin-5 (Homo sapiens) + 1-acylglycerol-3-phosphate O-acyltransferase ABHD5 (Homo sapiens) (UniProt Q00G26+Q8WTS1)
Assay: blockers of ABHD5 binding to perilipin-5 – cell lysate, luminescence, proteins expressed in HEK293T, dose response (AID 651733);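 note: split Gaussia princeps luciferase complementation between ABHD5 and MLDP fusion proteins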
Details: ABHD5-PLIN5 interaction

Perilipin-5 (Homo sapiens) + 1-acylglycerol-3-phosphate O-acyltransferase ABHD5 (Homo sapiens), sequence (Q00G26 whole entry, looked up, the tested form may be a part): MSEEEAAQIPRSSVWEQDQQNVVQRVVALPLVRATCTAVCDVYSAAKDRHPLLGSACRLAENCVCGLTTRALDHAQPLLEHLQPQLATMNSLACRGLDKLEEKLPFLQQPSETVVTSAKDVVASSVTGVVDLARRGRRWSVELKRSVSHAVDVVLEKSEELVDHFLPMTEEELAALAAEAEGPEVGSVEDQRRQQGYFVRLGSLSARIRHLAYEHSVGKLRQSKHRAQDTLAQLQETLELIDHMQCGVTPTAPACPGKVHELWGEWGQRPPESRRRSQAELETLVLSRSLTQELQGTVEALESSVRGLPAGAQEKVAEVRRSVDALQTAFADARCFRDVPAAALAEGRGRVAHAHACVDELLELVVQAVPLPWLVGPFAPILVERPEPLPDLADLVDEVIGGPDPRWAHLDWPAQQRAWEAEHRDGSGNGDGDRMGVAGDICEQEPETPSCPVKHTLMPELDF
Perilipin-5 (Homo sapiens) + 1-acylglycerol-3-phosphate O-acyltransferase ABHD5 (Homo sapiens), sequence (Q8WTS1 whole entry, looked up, the tested form may be a part): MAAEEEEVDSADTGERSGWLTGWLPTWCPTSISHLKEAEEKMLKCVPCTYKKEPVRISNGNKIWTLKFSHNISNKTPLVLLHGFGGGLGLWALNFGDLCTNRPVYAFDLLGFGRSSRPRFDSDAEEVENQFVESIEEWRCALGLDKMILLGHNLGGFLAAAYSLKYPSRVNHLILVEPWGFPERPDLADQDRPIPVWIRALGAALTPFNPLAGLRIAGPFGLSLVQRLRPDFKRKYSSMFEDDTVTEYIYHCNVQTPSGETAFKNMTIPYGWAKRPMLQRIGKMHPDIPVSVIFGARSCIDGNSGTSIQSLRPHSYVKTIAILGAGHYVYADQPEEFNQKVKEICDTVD

| SMILES | pIC50 | IC50 |
| --- | --- | --- |
| CN(C)CCCN(C(=O)CCc1ccccc1)c1nc2ccc(Cl)cc2s1 | – | inactive |
| COc1ccc(C(C(=O)NCc2ccccc2)n2c(=O)c(-c3ccco3)nc3ccccc32)cc1 (centres undefined) | 5.27 | – |
| COc1ccc(-c2cc(N)n(S(=O)(=O)c3c(F)c(F)c(F)c(F)c3F)n2)cc1OC | – | inactive |
| COc1cc(OC)cc(C(=O)NC(=S)N(Cc2ccccc2)C(C)C)c1 | – | inactive |
| Cc1ccc(S(=O)(=O)N2C[C@H]3n4c(=O)ccc(=O)n4C[C@H](OC(=O)Nc4cccs4)[C@@]3(O)C2)cc1 | 5.06 | – |
| O=[N+]([O-])/C=C/c1cn(Cc2ccc(F)cc2)c2ccccc12 | 5.15 | – |
| CC(c1nc2ccccc2[nH]1)n1c(=O)c(-c2ccco2)nc2ccccc21 (centres undefined) | 5.21 | – |
| CC(C)(C)NC(=O)C(c1ccnc2ccccc12)n1c(=O)c(-c2ccco2)nc2ccccc21 (centres undefined) | 5.09 | – |
| CN(C)CCOc1ccc(-c2c(-c3ccccc3)sc3ccccc23)cc1 | – | inactive |
| CN(C)CCOc1ccc(/C(=C(/CCCl)c2ccccc2)c2ccccc2)cc1 | 5.92 | – |
| Oc1ccc2sc(-c3ccccc3O)c(-c3ccc(OCCN4CCCCC4)cc3)c2c1 | – | inactive |
| O=C(Nc1ccc2c(c1)OCCO2)C(c1ccnc2ccccc12)n1c(=O)c(-c2ccco2)nc2ccccc21 (centres undefined) | – | inactive |
| Cc1ccc(C(=O)/C=C/c2cc(Br)cc(Br)c2O)o1 | – | inactive |
| CCCCC(=O)NC(c1cccc([N+](=O)[O-])c1)c1ccc2cccnc2c1O (centres undefined) | – | inactive |
| CC(=O)Oc1c(Br)cc(N(C(C)=O)S(=O)(=O)c2ccccc2)c2ccccc12 | – | inactive |
| O=C(NCc1ccccc1)C(C1CC1)n1c(=O)c(-c2ccco2)nc2ccccc21 (centres undefined) | – | inactive |
| COc1cccc2sc(N(CCCN(C)C)C(=O)COc3ccc(Cl)cc3)nc12 | – | inactive |
| COc1cc2c(cc1OC)C(C)N(CCc1ccc(Cl)cc1)CC2 (centres undefined) | 5.27 | – |
| Cc1cc(C)c(NC(=O)C[N+](C)(C)CC(O)COc2cccc3ccccc23)c(C)c1 (centres undefined) | 5.05 | – |
| COc1ccc(NC(=O)c2cc3ccccc3cc2O)cc1 | – | inactive |
| CCOC(=O)c1c(NC(=O)/C=C/C(=O)O)sc(C)c1-c1ccc(C(C)(C)C)cc1 | 5.22 | – |
| Cc1ccc2sc(N(CCCN(C)C)C(=O)CN3C(=O)c4ccccc4C3=O)nc2c1C | – | inactive |
| N#Cc1ccccc1OCc1cn(CC(=O)c2ccc(O)cc2)nn1 | 5.23 | – |

Other lines, results leading:

| pIC50 | IC50 | SMILES |
| --- | --- | --- |
| 5.43 | – | CC(CCc1ccco1)NC(=O)CCc1nnc2ccc(NCc3ccccc3Cl)nn12 (centres undefined) |
| 6.06 | – | CCOC(=O)/C(=C\c1ccc(Cl)cc1)c1nc2sc(C)c(C)c2c(=O)[nH]1 |
| 5.39 | – | O=C(NC1CCCCC1)C(c1ccc(-c2ccccc2)cc1)n1c(=O)c(-c2ccco2)nc2ccccc21 (centres undefined) |
| 5.60 | – | CC(C)(C)NC(=O)C(c1ccc(C#N)cc1)n1c(=O)c(-c2ccco2)nc2ccccc21 (centres undefined) |
| 5.40 | – | CC(C)(C)NC(=O)C(c1cc2ccccc2o1)n1c(=O)c(-c2ccco2)nc2ccccc21 (centres undefined) |
| 5.58 | – | Cc1ccc(O)c(C(=O)C=Cc2ccccc2)c1 |
| 5.44 | – | CSc1nnc(NC(=O)c2nc(S(=O)(=O)Cc3cccc(C)c3)ncc2Cl)s1 |
| 5.52 | – | CCC(=O)Nc1cccc(C(=O)/C=C/c2ccccc2)c1 |
| 5.46 | – | CCCCCNC(=O)C(c1ccc(C(F)(F)F)cc1)n1c(=O)c(-c2ccco2)nc2ccccc21 (centres undefined) |
| 5.49 | – | CC1=CC(C)(C)Nc2ccc(OC(=O)c3cccnc3)cc21 |
| 5.31 | – | CCCc1nnc(NC(=O)c2nc(S(=O)(=O)Cc3cccc(C)c3)ncc2Cl)s1 |
| 5.62 | – | O=c1[nH]c(C2CCN(S(=O)(=O)c3ccc(S(=O)(=O)NC4CC4)cc3)CC2)nc2c1nnn2Cc1ccc(F)cc1 |
| 5.54 | – | N#Cc1ccc(C(C(=O)NCc2ccccc2)n2c(=O)c(-c3ccco3)nc3ccccc32)cc1 (centres undefined) |
| 5.29 | – | O=C(/C=C/c1ccc2c(c1)OCCCO2)c1ccccc1O |
| 5.59 | – | CC(C)(C)NC(=O)C(c1ccc(-c2ccccc2)cc1)n1c(=O)c(-c2ccco2)nc2ccccc21 (centres undefined) |
| 5.32 | – | CC1CN(Cc2c(O)ccc3c2oc(=O)c2ccccc23)CC(C)O1 (centres undefined) |
| 5.52 | – | O=CC1=C(c2ccccc2)Oc2ccccc2O1 |
| 5.38 | – | CCCNC(=O)Nc1ccc2c(c1)N(C)C(=O)c1ccccc1S2 |
| 5.95 | – | CCN1/C(=C/C=C/c2oc3ccc(-c4ccccc4)cc3[n+]2CC)Oc2ccc(-c3ccccc3)cc21 |
| 5.51 | – | C#CCN(C[C@@H]1[C@@H](OC(=O)Nc2cccs2)[C@@H](OC(=O)Nc2cccs2)Cn2c(=O)ccc(=O)n21)S(=O)(=O)c1ccc(C)cc1 |
| 5.48 | – | COC(=O)c1cc(=O)n(-c2ccc(F)cc2)c(=Nc2ccc(F)cc2)s1 |
| 5.80 | – | C=C1C(=O)O[C@H]2C[C@H]1[C@@H](OC(C)=O)C/C(C)=C/CC/C(C)=C\CC[C@]2(C)O |
| 5.31 | – | O=C(NCc1ccccc1)C(c1cc2ccccc2o1)n1c(=O)c(-c2ccco2)nc2ccccc21 (centres undefined) |
| 5.37 | – | Cc1cccc(NC(=O)CSc2nnc(-c3ccco3)c(-c3ccco3)n2)c1 |
| 5.65 | – | CCOC1=CC2=C(C(=O)C(Cl)=CC2=O)[C@@H]2CN(S(=O)(=O)c3ccc(C)cc3)[C@@H](c3ccccc3)[C@H]12 |
| 5.29 | – | O=C(NC1CCCCC1)C(C1CC1)n1c(=O)c(-c2ccco2)nc2ccccc21 (centres undefined) |
